Test results taken from paper PMC3139250 (Phytochemistry letters, 2011).

Target: mitochondrial ETC complex I (NADH-ubiquinone oxidoreductase) (Homo sapiens, UniProt O75251+O75306+P03886)
Assay: Oxygen consumption
Assay type: cell-based

CC(C)(O)[C@H]1CC[C@](C)([C@@H](O)CC[C@](C)(O)[C@H]2CC[C@H]3O[C@@H]([C@]4(C)CC[C@@H](Br)C(C)(C)O4)CC[C@]3(C)O2)O1 [compound 1, thyrsiferol]
IC50: 3 µM
